Data as given in PubChem BioAssay (NCI).
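Briefly, cells in 96-well plates were exposed to five compound concentrations for 48 h, and endpoints were estimated by linear interpolation. TGI denotes the concentration required for complete inhibition of growth.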

Assays:
Assay in all cases: growth of human tumour cells (NCI), 48 h
786-0 renal = test system: 786-0 renal
A549 NSCLC = test system: A549 NSCLC
ACHN renal = test system: ACHN renal
CCRF-CEM leukemia = test system: CCRF-CEM leukemia
COLO 205 colon = test system: COLO 205 colon
DLD-1 colon = test system: DLD-1 colon
DMS 114 small cell lung = test system: DMS 114 small cell lung
DMS 273 small cell lung = test system: DMS 273 small cell lung
EKVX NSCLC = test system: EKVX NSCLC
HCC-2998 colon = test system: HCC-2998 colon
HCT-116 colon = test system: HCT-116 colon
HCT-15 colon = test system: HCT-15 colon
HL-60(TB) leukemia = test system: HL-60(TB) leukemia
HOP-62 NSCLC = test system: HOP-62 NSCLC
HOP-92 NSCLC = test system: HOP-92 NSCLC
HT29 colon = test system: HT29 colon
IGROV1 ovarian = test system: IGROV1 ovarian
K-562 leukemia = test system: K-562 leukemia
KM12 colon = test system: KM12 colon
KM20L2 colon = test system: KM20L2 colon
LXFL 529 NSCLC = test system: LXFL 529 NSCLC
M14 melanoma = test system: M14 melanoma
M19-MEL melanoma = test system: M19-MEL melanoma
MALME-3M melanoma = test system: MALME-3M melanoma
MOLT-4 leukemia = test system: MOLT-4 leukemia
NCI-H23 lung = test system: NCI-H23 lung
NCI-H460 lung = test system: NCI-H460 lung
NCI-H522 lung = test system: NCI-H522 lung
OVCAR-3 ovarian = test system: OVCAR-3 ovarian
OVCAR-4 ovarian = test system: OVCAR-4 ovarian
OVCAR-5 ovarian = test system: OVCAR-5 ovarian
OVCAR-8 ovarian = test system: OVCAR-8 ovarian
RPMI-8226 leukemia = test system: RPMI-8226 leukemia
RXF 393 renal = test system: RXF 393 renal
SF-268 CNS = test system: SF-268 CNS
SF-295 CNS = test system: SF-295 CNS
SF-539 CNS = test system: SF-539 CNS
SK-MEL-2 melanoma = test system: SK-MEL-2 melanoma
SK-MEL-28 melanoma = test system: SK-MEL-28 melanoma
SK-MEL-5 melanoma = test system: SK-MEL-5 melanoma
SN12C renal = test system: SN12C renal
SNB-19 CNS = test system: SNB-19 CNS
SNB-75 CNS = test system: SNB-75 CNS
SNB-78 CNS = test system: SNB-78 CNS
SW-620 colon = test system: SW-620 colon
TK-10 renal = test system: TK-10 renal
U251 CNS = test system: U251 CNS
UACC-257 melanoma = test system: UACC-257 melanoma
UACC-62 melanoma = test system: UACC-62 melanoma
UO-31 renal = test system: UO-31 renal
XF 498 CNS = test system: XF 498 CNS
A498 renal = test system: A498 renal
CAKI-1 renal = test system: CAKI-1 renal
LOX IMVI melanoma = test system: LOX IMVI melanoma
RXF-631 renal = test system: RXF-631 renal
SK-OV-3 ovarian = test system: SK-OV-3 ovarian

For `COC(=O)C1=C(C(=O)OC)C23C=CC=CC24C(C(=O)OC)=C(C(=O)OC)C4C1C3` (stereo not drawn), the TGI (786-0 renal) was over 100 µM, the TGI (A549 NSCLC) was over 100 µM and the TGI (ACHN renal) was over 100 µM. The TGI (CCRF-CEM leukemia) was over 100 µM, the TGI (COLO 205 colon) was over 100 µM and the TGI (DLD-1 colon) was over 100 µM. The TGI (DMS 114 small cell lung) was over 100 µM, the TGI (DMS 273 small cell lung) was over 100 µM and the TGI (EKVX NSCLC) was over 100 µM. It also gave a TGI (HCC-2998 colon) of over 100 µM, a TGI (HCT-116 colon) of over 100 µM and a TGI (HCT-15 colon) of over 100 µM. The TGI (HL-60(TB) leukemia) was over 100 µM, the TGI (HOP-62 NSCLC) was over 100 µM and the TGI (HOP-92 NSCLC) was over 100 µM. It also gave a TGI (HT29 colon) of over 100 µM, a TGI (IGROV1 ovarian) of over 100 µM and a TGI (K-562 leukemia) of over 100 µM. The TGI (KM12 colon) was over 100 µM, the TGI (KM20L2 colon) was over 100 µM and the TGI (LXFL 529 NSCLC) was over 100 µM. It also gave a TGI (M14 melanoma) of over 100 µM, a TGI (M19-MEL melanoma) of over 100 µM and a TGI (MALME-3M melanoma) of over 100 µM. The TGI (MOLT-4 leukemia) was over 100 µM, the TGI (NCI-H23 lung) was over 100 µM and the TGI (NCI-H460 lung) was over 100 µM. It also gave a TGI (NCI-H522 lung) of over 100 µM, a TGI (OVCAR-3 ovarian) of over 100 µM and a TGI (OVCAR-4 ovarian) of over 100 µM. For the same compound, the TGI (OVCAR-5 ovarian) was over 100 µM, the TGI (OVCAR-8 ovarian) was over 100 µM and the TGI (RPMI-8226 leukemia) was over 100 µM. For the same compound, the TGI (RXF 393 renal) was over 100 µM, the TGI (SF-268 CNS) was over 100 µM and the TGI (SF-295 CNS) was over 100 µM. It also gave a TGI (SF-539 CNS) of over 100 µM, a TGI (SK-MEL-2 melanoma) of over 100 µM and a TGI (SK-MEL-28 melanoma) of over 100 µM. It also gave a TGI (SK-MEL-5 melanoma) of over 100 µM, a TGI (SN12C renal) of over 100 µM and a TGI (SNB-19 CNS) of over 100 µM. It also gave a TGI (SNB-75 CNS) of 9.08 µM, a TGI (SNB-78 CNS) of over 100 µM and a TGI (SW-620 colon) of over 100 µM. The TGI (TK-10 renal) was over 100 µM, the TGI (U251 CNS) was over 100 µM and the TGI (UACC-257 melanoma) was over 100 µM. For the same compound, the TGI (UACC-62 melanoma) was over 100 µM, the TGI (UO-31 renal) was over 100 µM and the TGI (XF 498 CNS) was over 100 µM.

For `O=C1CC2CCCCC2=C1O` (stereo not drawn), the TGI (786-0 renal) was over 100 µM, the TGI (A498 renal) was over 100 µM and the TGI (A549 NSCLC) was over 100 µM. The TGI (ACHN renal) was over 100 µM, the TGI (CAKI-1 renal) was over 100 µM and the TGI (CCRF-CEM leukemia) was over 100 µM. For the same compound, the TGI (COLO 205 colon) was over 100 µM, the TGI (DLD-1 colon) was over 100 µM and the TGI (DMS 114 small cell lung) was over 100 µM. It also gave a TGI (DMS 273 small cell lung) of over 100 µM, a TGI (EKVX NSCLC) of over 100 µM and a TGI (HCC-2998 colon) of over 100 µM. The TGI (HCT-116 colon) was over 100 µM, the TGI (HCT-15 colon) was over 100 µM and the TGI (HL-60(TB) leukemia) was over 100 µM. For the same compound, the TGI (HOP-62 NSCLC) was over 100 µM, the TGI (IGROV1 ovarian) was over 100 µM and the TGI (K-562 leukemia) was over 100 µM. The TGI (KM12 colon) was over 100 µM, the TGI (LOX IMVI melanoma) was over 100 µM and the TGI (LXFL 529 NSCLC) was over 100 µM. It also gave a TGI (M19-MEL melanoma) of over 100 µM, a TGI (MALME-3M melanoma) of over 100 µM and a TGI (MOLT-4 leukemia) of over 100 µM. For the same compound, the TGI (NCI-H23 lung) was over 100 µM, the TGI (NCI-H460 lung) was over 100 µM and the TGI (NCI-H522 lung) was over 100 µM. The TGI (OVCAR-3 ovarian) was over 100 µM, the TGI (OVCAR-4 ovarian) was over 100 µM and the TGI (OVCAR-5 ovarian) was over 100 µM. For the same compound, the TGI (OVCAR-8 ovarian) was over 100 µM, the TGI (RPMI-8226 leukemia) was over 100 µM and the TGI (RXF 393 renal) was over 100 µM. The TGI (RXF-631 renal) was over 100 µM, the TGI (SF-268 CNS) was over 100 µM and the TGI (SF-295 CNS) was over 100 µM. The TGI (SF-539 CNS) was over 100 µM, the TGI (SK-MEL-2 melanoma) was over 100 µM and the TGI (SK-MEL-28 melanoma) was over 100 µM. The TGI (SK-MEL-5 melanoma) was over 100 µM, the TGI (SK-OV-3 ovarian) was over 100 µM and the TGI (SN12C renal) was over 100 µM. For the same compound, the TGI (SNB-19 CNS) was over 100 µM, the TGI (SNB-75 CNS) was over 100 µM and the TGI (SNB-78 CNS) was over 100 µM. For the same compound, the TGI (SW-620 colon) was over 100 µM, the TGI (TK-10 renal) was over 100 µM and the TGI (U251 CNS) was over 100 µM. The TGI (UACC-257 melanoma) was over 100 µM, the TGI (UACC-62 melanoma) was over 100 µM and the TGI (UO-31 renal) was over 100 µM. It also gave a TGI (XF 498 CNS) of over 100 µM.
